Test: Solubility of N-benzoyl-staurosporine in water, simulated gastric and intestinal fluids
Assay type: physicochemical
Procedure: U.S. Pat. No. 5,093,330 specifically discloses two tablet formulations based on starch/lactose mixtures in the presence of colloidal silica, talc and magnesium stearate (Examples 52 and 53) and a capsule formulation based on talc and colloidal silica (Example 54). […] We have found it to be very lipophilic and practically insoluble in water, in simulated gastric and in intestinal fluids (solubility<0.1 mg/L). In particular this exceptional low solubility of the active substance necessitated development of a non-conventional dosage form.

With `CO[C@@H]1[C@H](N(C)C(=O)c2ccccc2)C[C@H]2O[C@]1(C)n1c3ccccc3c3c4c(c5c6ccccc6n2c5c31)C(=O)NC4` [N-benzoyl-staurosporine] the solubility was under 0.1 µg/mL.
